Here are results for 11 compounds from US9676756B2 (PORTOLA PHARMACEUTICALS, INC., priority 2012, dated 2017).

Holding throughout (type): biochemical
Assay [1] has as its target T1, full length active recombinant SYK enzyme (Homo sapiens, UniProt P43405).
T1 construct: full length active recombinant SYK enzyme (Millipore, CA); purchased Millipore
The assay is described as follows: SYK tyrosine phosphorylation activity, LANCE TR-FRET kinase assay. The settings on record: 1 nM SYK, 100 μM ATP, 1 hour at room temperature. As for the experimental part: Potency of candidate molecules for inhibiting Syk tyrosine phosphorylation activity is assessed by measuring the ability of a test compound to inhibit Syk-mediated tyrosine phosphorylation of a Syk-specific substrate.
SYK tyrosine phosphorylation activity is measured using the LANCE™ Technology developed by Perkin Elmer Life and Analytical Sciences (Boston, Mass.). LANCE™ refers to homogeneous time resolved fluorometry applications using techniques such as time-resolved fluorescence resonance energy transfer assay (TR-FRET) (see generally for procedures in Perkin Elmer Application Note—How to Optimize a Tyrosine Kinase Assay Using Time Resolved Fluorescence-Based LANCE Detection, wwww.perkinelmer.com/lifesciences). The assay principle involves detection of a phosphorylated substrate using energy transfer from a phosphospecific europium-labeled antibody to streptavidin-allophycocyanin as an acceptor.
To test the ability of candidate molecules to inhibit SYK tyrosine phosphorylation activity, molecules are reconstituted in 30% DMSO and serially diluted 1:3 with the final dilution containing DMSO in the absence of the candidate molecule. The final DMSO concentration in the assay is 3%. Kinase assays are performed as a two part reaction. The first reaction is a kinase reaction that comprises a candidate molecule, full length active recombinant SYK enzyme (Millipore, CA) and biotin-labeled SYK-specific substrate biotin-[…]-OH. The second reaction involves termination of the kinase reaction and the simultaneous addition of the detection reagents-europium-labeled anti-phosphotyrosine reagent (Eu-W1024-PY100, Perkin Elmer, Boston, Mass.) and Streptavidin-Allophycocyanin detection reagent (SA-APC, Prozyme, CA). The kinase reaction is performed in a black U-bottom 96-well microtitre plate. The final reaction volume is 50 μL and contains a final concentration of 1 nM active SYK enzyme, 550 nM SYK-substrate, and 100 μM ATP diluted in a buffer containing 50 mM Tris pH 7.5, 5 mM MgCl2, and 1 mM DTT. The reaction is allowed to proceed for 1 hour at room temperature. The stop buffer contains 100 mM Tris pH 7.5, 300 mM NaCl2, 20 mM EDTA, 0.02% Brij35, and 0.5% BSA. The detection reagents are added to the reaction mixture at the following dilutions—1:500 for Eu-W1024-PY100 and 1:250 for SA-APC. The kinase reaction is terminated by the addition of 50 μL stop buffer containing the detection reagents. The detection is allowed to proceed for 1 hr at room temperature. Detection of the phosphorolated substrate in the absence and presence of inhibitors is measured in the TR-FRET instrument, Analyst HT (Molecular Probes, Sunnyvale, Calif.) and the condition for measurements are set up using CriterionHost Release 2.0 (Molecular Probes, Sunnyvale, Calif.). The settings used are a follows: excitation 360 nm, emission 665-7.5 nm, beam splitter 350 nm 50/50, flash 100 pulses, delay 60 us, integration 400 us, z-height 2 mm. Inhibition of SYK-tyrosine kinase activity is calculated as the maximum response observed in the presence of inhibitor, compared to that in the absence of inhibitor. IC50s are derived by non-linear regression analysis.
On the technique in general: Time-resolved FRET reads energy transfer from a long-lived donor to a nearby acceptor.

The next assay has as its target T2, JAK1 (Homo sapiens, UniProt P23458).
T2 construct: 5 μl of catalytic domain recombinant Kinase enzyme+Tyr peptide substrate (Invitrogen, CA); purchased Invitrogen
The assay can be described thus: JAK tyrosine phosphorylation activity, Z'-LYTE FRET kinase assay. The settings on record: catalytic domain recombinant kinase, Tyr6 peptide. As for the experimental part:
(§1) JAK and SYK tyrosine phosphorylation activity is measured using the Z'-LYTE™ Technology developed by Invitrogen Corporation (Carlsbad, Calif.). For JAK1, JAK2 and JAK3 the Z'-LYTE™ Kinase Assay Kit-Tyr6 Peptide (part number PV4122) was used. The Z'-LYTE™ biochemical assay employs a fluorescence resonance energy transfer (FRET) coupled-enzyme format and is based on the differential sensitivity of phosphorylated and non-phosphorylated peptides to proteolitic cleavage. The assay uses a synthetic peptide substrate that is labelled with a donor fluorophore (coumarin) and an acceptor fluorophore (fluorescein) that make up a FRET pair. In the primary reaction (the Kinase Reaction), the kinase transfers the γ-phosphate of ATP to a single tyrosine residue on the substrate, while the presence of a kinase inhibitor in the primary reaction suppresses phosphorylation. In the secondary reaction (the Development Reaction), a site-specific protease (the Development Reagent) is added. The development buffer quenches the Kinase Reaction, while the protease recognizes and cleaves non-phosphorylated Z'-LYTE™ peptide substrate. Cleavage disrupts FRET between the donor and acceptor fluorophores on the non-phosphorylated substrate, while uncleaved, phosphorylated substrate maintains FRET.
(§2) To test the ability of candidate molecules to inhibit JAK tyrosine phosphorylation activity, molecules are reconstituted in 100% DMSO and serially diluted 1:10 in polypropylene v-bottom microtiter plates. The candidate molecules are then diluted 1:25 into kinase buffer and 2.5 μl transferred into duplicate wells of a 384 well low volume black microtiter assay plate (Corning, USA). The final DMSO concentration in the assay is 1%. The kinase reaction contains 2.5 μl of a candidate molecule, 5 μl of catalytic domain recombinant Kinase enzyme+Tyr peptide substrate (Invitrogen, CA) and 2.5 μl ATP (Invitrogen, CA). The kinase reaction is allowed to precede for 1 hour at room temperature. The protease reaction is initiated by the addition of 5 μl Development Reagent (Invitrogen, CA). After 1 hour incubation at room temperature the fluorescence is measured using a FlexStation plate reader (Molecular Devices, Sunnyvale, Calif.). The reader settings used are as follows: Fluorescence mode, endpoint, top read, excitation 400 nm, emission 445 nm and 520 nm. Auto Cutoff 435 nm and 515 nm, PMT sensitivity high, 6 reads per well. Inhibition of JAK activity is calculated as the percent phosphorylation of substrate in the presence of inhibitor compared to the percent phosphorylation of substrate in the absence of inhibitor. IC50's were derived using Xlfit 4.3 (IDBS, UK), 4 parameter logistic model 205: Y=(A+((B−A)/(1+((C/x)^D)))).

A further assay deals with T3, JAK2 (Homo sapiens, UniProt O60674).
T3 construct: 5 μl of catalytic domain recombinant Kinase enzyme+Tyr peptide substrate (Invitrogen, CA); purchased Invitrogen
T3 sequence (O60674 849-1124 limits assumed): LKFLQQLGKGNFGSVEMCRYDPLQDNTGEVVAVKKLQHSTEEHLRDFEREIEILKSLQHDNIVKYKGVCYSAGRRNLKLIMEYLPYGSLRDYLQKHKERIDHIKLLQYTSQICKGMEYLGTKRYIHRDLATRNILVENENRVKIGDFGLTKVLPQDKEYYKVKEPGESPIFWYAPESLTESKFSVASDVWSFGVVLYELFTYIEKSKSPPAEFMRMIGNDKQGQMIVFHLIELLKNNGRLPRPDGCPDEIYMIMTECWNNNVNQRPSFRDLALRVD
Described as above. To be noted: catalytic domain recombinant kinase, Tyr6 peptide. Here is the method: as §1, §2

A further assay concerns the target T4, JAK3 (Homo sapiens, UniProt P52333).
T4 construct: 5 μl of catalytic domain recombinant Kinase enzyme+Tyr peptide substrate (Invitrogen, CA); purchased Invitrogen
Described as above. The settings on record: catalytic domain recombinant kinase, Tyr6 peptide. Here is the method: as §1, §2

Where two headings read alike, the source gives them in different places. Some results are limits rather than exact numbers.

T4 sequence (P52333 822-1111 limits assumed): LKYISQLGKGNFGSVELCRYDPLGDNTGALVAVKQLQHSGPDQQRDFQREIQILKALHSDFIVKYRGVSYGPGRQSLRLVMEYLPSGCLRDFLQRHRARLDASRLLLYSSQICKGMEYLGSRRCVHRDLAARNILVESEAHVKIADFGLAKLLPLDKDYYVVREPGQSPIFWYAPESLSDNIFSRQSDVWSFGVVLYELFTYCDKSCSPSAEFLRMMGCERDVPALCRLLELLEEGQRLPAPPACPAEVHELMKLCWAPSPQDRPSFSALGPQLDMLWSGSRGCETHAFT
T2 sequence (P23458 875-1153 limits assumed): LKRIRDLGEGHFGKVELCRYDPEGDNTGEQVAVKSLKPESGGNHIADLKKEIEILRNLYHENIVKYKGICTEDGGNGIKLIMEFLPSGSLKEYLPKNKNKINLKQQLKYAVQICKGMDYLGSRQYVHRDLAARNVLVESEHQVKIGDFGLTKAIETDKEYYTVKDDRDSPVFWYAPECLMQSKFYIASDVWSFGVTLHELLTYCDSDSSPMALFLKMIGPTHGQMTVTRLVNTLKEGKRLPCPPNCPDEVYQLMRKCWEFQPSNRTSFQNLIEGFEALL

As a reminder, the IC50 is the concentration that inhibits the measured activity by half. `CS(=O)(=O)N1CCN(c2ccc(Nc3ncc(C(N)=O)c(NC4CC4)n3)cc2C#N)CC1` [Compound 47, 2-((3-cyano-4-(4-(methylsulfonyl)piperazin-1-yl)phenyl)amino)-4-(cyclopropylamino)pyrimidine-5-carboxamide]: the IC50 result in assay [1] is “++ (1.0 uM<IC50<0.10 uM)”. Besides, on JAK1, the “JAK1 IC50 potency class” value is reported as “+++ (0.10 uM<IC50<0.01 uM)”. Moreover, the “JAK2 IC50 potency class” value on JAK2 was “++++ (0.01 uM<IC50<0.001 uM)”. The “JAK3 IC50 potency class” value at JAK3 was “++++ (0.01 uM<IC50<0.001 uM)”.

Turning to `CN(C)S(=O)(=O)N1CCC(c2ccc(Nc3ncc(C(N)=O)c(NC4CC4)n3)cc2)CC1` [Compound 12, 4-(cyclopropylamino)-2-((4-(1-(N,N-dimethylsulfamoyl)piperidin-4-yl)phenyl)amino)pyrimidine-5-carboxamide], the IC50 result in assay [1] was “++ (1.0 uM<IC50<0.10 uM)”. For the same compound, the “JAK1 IC50 potency class” value on JAK1 is “+++ (0.10 uM<IC50<0.01 uM)”. The “JAK2 IC50 potency class” value on JAK2 is on record as “+++ (0.10 uM<IC50<0.01 uM)”. Besides, the “JAK3 IC50 potency class” value at JAK3 is “++++ (0.01 uM<IC50<0.001 uM)”.

Regarding `CS(=O)(=O)N1CCN(c2c(F)cc(Nc3ncc(C(N)=O)c(NC4CC4)n3)cc2F)CC1` [Compound 49, 4-(cyclopropylamino)-2-((3,5-difluoro-4-(4-(methylsulfonyl)piperazin-1-yl)phenyl)amino)pyrimidine-5-carboxamide], in assay [1], the IC50 result is “++ (1.0 uM<IC50<0.10 uM)”. In addition, the “JAK1 IC50 potency class” value at JAK1 is “++ (1.0 uM<IC50<0.10 uM)”. In addition, the “JAK2 IC50 potency class” value on JAK2 is reported as “+++ (0.10 uM<IC50<0.01 uM)”. Moreover, the “JAK3 IC50 potency class” value at JAK3 was “+++ (0.10 uM<IC50<0.01 uM)”.

In the case of `CCS(=O)(=O)N1CC=C(c2ccc(Nc3ncc(C(N)=O)c(NC4CC4)n3)cc2)CC1` [Compound 57, 4-(cyclopropylamino)-2-((4-(1-(ethylsulfonyl)-1,2,3,6-tetrahydropyridin-4-yl)phenyl)amino)pyrimidine-5-carboxamide], the IC50 result in assay [1] was “+++ (0.10 uM<IC50<0.01 uM)”. Besides, on JAK1, the “JAK1 IC50 potency class” value was “+++ (0.10 uM<IC50<0.01 uM)”. Besides, the “JAK2 IC50 potency class” value on JAK2 is “+++ (0.10 uM<IC50<0.01 uM)”. Further, the “JAK3 IC50 potency class” value on JAK3 is “++++ (0.01 uM<IC50<0.001 uM)”.

In the case of `NC(=O)c1cnc(NC2CC2)cc1Nc1ccc(C2CCNCC2)cc1` [Compound 68, 6-(cyclopropylamino)-4-((4-(piperidin-4-yl)phenyl)amino)nicotinamide], the IC50 (in assay [1] (read-out: Syk IC50 % Inhibition); on JAK1 (read-out: JAK1 IC50 % Inhibition); on JAK2 (read-out: JAK2 IC50 % Inhibition); at JAK3 (read-out: JAK3 IC50 % Inhibition)) was greater than 1000 nM throughout.

In the case of `CCS(=O)(=O)N1CCC(c2ccc(Nc3ncc(C(N)=O)c(NC4CC4)n3)cc2)CC1` [Compound 1, 4-(cyclopropylamino)-2-((4-(1-(ethylsulfonyl)piperidin-4-yl)phenyl)amino)pyrimidine-5-carboxamide], the IC50 result in assay [1] is “+++ (0.10 uM<IC50<0.01 uM)”. For the same compound, the “JAK1 IC50 potency class” value on JAK1 is “+++ (0.10 uM<IC50<0.01 uM)”. In addition, the “JAK2 IC50 potency class” value at JAK2 is “++++ (0.01 uM<IC50<0.001 uM)”. Also, the “JAK3 IC50 potency class” value on JAK3 was “++++ (0.01 uM<IC50<0.001 uM)”.

As for `CCS(=O)(=O)N1CCN(c2ccc(Nc3ncc(C(N)=O)c(NC4CC4)n3)cc2F)CC1` [Compound 42, 4-(cyclopropylamino)-2-((4-(4-(ethylsulfonyl)piperazin-1-yl)-3-fluorophenyl)amino)pyrimidine-5-carboxamide], the half-inhibitory concentration (IC50) result in assay [1] was “+++ (0.10 uM<IC50<0.01 uM)”. Also, the “JAK1 IC50 potency class” value on JAK1 is “+++ (0.10 uM<IC50<0.01 uM)”. For the same compound, on JAK2, the “JAK2 IC50 potency class” value is “++++ (0.01 uM<IC50<0.001 uM)”. Further, the “JAK3 IC50 potency class” value at JAK3 is given as “++++ (0.01 uM<IC50<0.001 uM)”.

Take `NC(=O)c1cnc(Nc2ccc(C3CCN(S(=O)(=O)C4CC4)CC3)cc2)nc1NC1CC1` [Compound 2, 4-(cyclopropylamino)-2-((4-(1-(cyclopropylsulfonyl)piperidin-4-yl)phenyl)amino)pyrimidine-5-carboxamide]: the IC50 entry in assay [1] is listed as “+++ (0.10 uM<IC50<0.01 uM)”. The “JAK1 IC50 potency class” value on JAK1 is reported as “+++ (0.10 uM<IC50<0.01 uM)”. Besides, the “JAK2 IC50 potency class” value at JAK2 is “++++ (0.01 uM<IC50<0.001 uM)”. In addition, the “JAK3 IC50 potency class” value on JAK3 was “++++ (0.01 uM<IC50<0.001 uM)”.

Take `NC(=O)c1cnc(Nc2ccc(C3CCN(C(=O)N4CCOCC4)CC3)cc2)nc1NC1CC1` [Compound 6, 4-(cyclopropylamino)-2-((4-(1-(morpholine-4-carbonyl)piperidin-4-yl)phenyl)amino)pyrimidine-5-carboxamide]: in assay [1], the half-inhibitory concentration (IC50) result is listed as “+++ (0.10 uM<IC50<0.01 uM)”. For the same compound, the “JAK1 IC50 potency class” value at JAK1 is reported as “+++ (0.10 uM<IC50<0.01 uM)”. For the same compound, the “JAK2 IC50 potency class” value at JAK2 is reported as “++++ (0.01 uM<IC50<0.001 uM)”. Also, the “JAK3 IC50 potency class” value at JAK3 was “++++ (0.01 uM<IC50<0.001 uM)”.

On to `CCS(=O)(=O)N1CCN(c2ccc(Nc3ncc(C(N)=O)c(NC4CC4)n3)cc2Cl)CC1` [Compound 43, 2-((3-chloro-4-(4-(ethylsulfonyl)piperazin-1-yl)phenyl)amino)-4-(cyclopropylamino)pyrimidine-5-carboxamide], for which, in assay [1], the IC50 entry is “+++ (0.10 uM<IC50<0.01 uM)”. Moreover, the “JAK1 IC50 potency class” value on JAK1 is “++ (1.0 uM<IC50<0.10 uM)”. Further, on JAK2, the “JAK2 IC50 potency class” value is given as “+++ (0.10 uM<IC50<0.01 uM)”. Also, at JAK3, the “JAK3 IC50 potency class” value is given as “+++ (0.10 uM<IC50<0.01 uM)”.

For `COC(=O)N1CCC(c2ccc(Nc3ncc(C(N)=O)c(NC4CC4)n3)cc2)CC1` [Compound 10, methyl 4-(4-((5-carbamoyl-4-(cyclopropylamino)pyrimidin-2-yl)amino)phenyl)piperidine-1-carboxylate], the IC50 result in assay [1] is “+++ (0.10 uM<IC50<0.01 uM)”. Further, at JAK1, the “JAK1 IC50 potency class” value is reported as “+++ (0.10 uM<IC50<0.01 uM)”. Further, the “JAK2 IC50 potency class” value on JAK2 is listed as “+++ (0.10 uM<IC50<0.01 uM)”. Further, the “JAK3 IC50 potency class” value at JAK3 is “++++ (0.01 uM<IC50<0.001 uM)”.
